The source of these data is patent publication US10005762B2, “Pyridine derivatives” (Astellas Pharma Inc., priority 2014, dated 2018).

Marks after values point to notes of the source that are not given here.

By IC50 is commonly meant the concentration that inhibits the measured activity by half.

For one test, the system named is water-loaded rats. In words: Antidiuresis test in water-loaded rats (oral administration). The format is in vivo, rat. As to conditions: 1 mg/kg oral (values marked *); water load 30 ml/kg 1 h after dosing; urine volume 1 h after water loading; vs vehicle control. The method, then: When a test compound is a free base, one molar equivalent hydrochloric acid was added to dissolve the compound in the solvent. Rats in a vehicle control group were administered only with the vehicle. One hour after the administration, 30 ml/kg of distilled water was orally administered to the rats. One hour after the water loading, the urine volume was measured (urine volumes less than 0.3 ml were considered as 0 ml) to calculate the ratio of the urine volume (urinary excretion rate) to the amount of water load.
For the compound `CCCSC[C@H](N)[C@](O)(Cc1nccc2c1C[C@H](CCC1CC1)C2)C(=O)O` [Example 42], the “Inhibition of urination (%)” value is reported as 81* %.
Still for that read-out and setting: then `CSC[C@H](N)[C@](O)(Cc1nccc2c1C[C@@H](CCC1CC1)C2)C(=O)O` [Example 44], with 51* %; and `CSC[C@H](N)[C@](O)(Cc1nccc2c1C[C@H](CCC1CC1)C2)C(=O)O` [Example 41], with 69* %.

The same test, now with this note: 3 mg/kg oral; water load 30 ml/kg 1 h after dosing; urine volume 1 h after water loading; vs vehicle control.
Take `N[C@@H](CCC1CC1)[C@](O)(Cc1cc(CCCC2CC2)ccn1)C(=O)O` [Example 40]: the “Inhibition of urination (%)” value came out at 100%.
The same measure, in the same setting: under `CC(C)C[C@H](N)[C@](O)(Cc1nccc2c1C[C@H](CCC1CC1)C2)C(=O)O` [Example 52] stands 90%.
For the compound `Cc1cnc(C[C@](O)(C(=O)O)[C@@H](N)COCCC2CC2)cc1CCCC1CC1` [Example 25], the “Inhibition of urination (%)” value is 88%.

The target of the next test is IRAP (Rattus norvegicus (Rat), UniProt P97629). In words: Inhibition of IRAP activity (AVP degradation, rat epididymal fat pad microsomes, MALDI-MS). Conditions: read-out: IRAP IC50, AVP 25 μM, 1 h at 37° C.
IRAP, sequence (P97629 whole entry): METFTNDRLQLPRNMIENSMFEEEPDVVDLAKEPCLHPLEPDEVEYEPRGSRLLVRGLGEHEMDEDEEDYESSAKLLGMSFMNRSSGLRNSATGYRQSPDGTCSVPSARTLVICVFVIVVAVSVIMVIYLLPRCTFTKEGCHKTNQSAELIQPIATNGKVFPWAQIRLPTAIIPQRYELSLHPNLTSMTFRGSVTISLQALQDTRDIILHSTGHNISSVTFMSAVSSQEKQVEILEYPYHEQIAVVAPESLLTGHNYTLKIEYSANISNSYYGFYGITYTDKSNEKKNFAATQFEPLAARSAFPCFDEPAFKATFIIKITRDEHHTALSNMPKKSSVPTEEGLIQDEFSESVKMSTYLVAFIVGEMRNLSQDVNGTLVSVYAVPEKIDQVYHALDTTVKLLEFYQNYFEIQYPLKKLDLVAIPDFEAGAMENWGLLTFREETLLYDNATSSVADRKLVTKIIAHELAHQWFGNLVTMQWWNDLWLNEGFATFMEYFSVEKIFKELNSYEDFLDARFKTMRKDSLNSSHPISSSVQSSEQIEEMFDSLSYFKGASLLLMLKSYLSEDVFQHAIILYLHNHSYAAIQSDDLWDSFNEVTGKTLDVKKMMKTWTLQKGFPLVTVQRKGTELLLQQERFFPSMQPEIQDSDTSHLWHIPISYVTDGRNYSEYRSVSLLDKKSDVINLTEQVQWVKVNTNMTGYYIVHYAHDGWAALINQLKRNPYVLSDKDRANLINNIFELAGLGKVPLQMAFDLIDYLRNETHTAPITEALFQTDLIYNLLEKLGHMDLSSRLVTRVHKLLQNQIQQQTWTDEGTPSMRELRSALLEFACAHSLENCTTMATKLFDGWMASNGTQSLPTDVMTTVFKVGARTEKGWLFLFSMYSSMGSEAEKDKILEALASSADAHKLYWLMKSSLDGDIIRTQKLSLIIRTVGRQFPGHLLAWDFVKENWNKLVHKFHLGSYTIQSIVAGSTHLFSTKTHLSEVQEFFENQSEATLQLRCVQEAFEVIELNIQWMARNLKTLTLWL
Protocol: (1) Inhibition of IRAP Activity
Residual AVP was then determined by mass spectrometry (MALDI-MS).
In the case of `CC(C)C[C@H](N)[C@](O)(Cc1cc(C2=CCOCC2)ccn1)C(=O)O` [Example 59], the IC50 is 110 nM.
Still for that read-out and setting: under `CC(C)C[C@H](N)[C@](O)(Cc1nccc2c1CCC1(CCCC1)C2)C(=O)O` [Example 19] stands 220 nM.
Same read-out and setting: under `COc1ccc(-c2ccnc(C[C@](O)(C(=O)O)[C@@H](N)CC(C)C)c2)cc1` [Example 57] stands 130 nM; under `CC(C)C[C@H](N)[C@](O)(Cc1cc(C2CCOCC2)ccn1)C(=O)O` [Example 78], 160 nM.
On to `CC(C)C[C@H](N)[C@](O)(Cc1nccc2c1CCC(OCc1ccccc1)C2)C(=O)O` (some centres unmarked) [Example 80], for which the IC50 was 130 nM.
